Results on 1 compound are retold here after patent US6482799B1, “Self-preserving multipurpose ophthalmic solutions incorporating a polypeptide antimicrobial” (The Regents of the University of California, priority 1999, dated 2002).

In one experiment the test system is Escherichia coli ML35. The experiment is described as follows: Dose response and kinetics of antimicrobial activity in 10 mM sodium phosphate buffer. It is filed as cell-based. As for the experimental part:
The time course and dose-dependence of the antimicrobial activity of an antimicrobial peptide can be determined by incubating a microorganism with the antimicrobial peptide and determining the viability after various times of incubation or after treatment with various concentrations of the antimicrobial peptide.
Exemplary assays using indolicidin and indolicidin analogs were performed in 10 mM sodium phosphate buffer, pH 7.4, at 37° C., as described by Selsted et al. (1985) Infect. Immun. 45:150-154, which is incorporated herein by reference.
The dose response of a gram negative bacterial strain, Escherichia coli ML35, and a gram positive bacterial strain, Staphylococcus aureus 502A, to indolicidin was determined by incubating 2×10^6 colony forming units (CFU) of log phase bacteria with 0-25 μg/mL of indolicidin for two hours. Following incubation, the cultures were serially diluted and plated on nutrient agar. Viability of both gram negative and gram positive bacteria was reduced by at least four orders of magnitude in incubations containing 10 μg/mL of indolicidin. E. coli was more susceptible than S. aureus, as >95% of the input cells were killed after 2 hr incubation with 2.5 μg/mL indolicidin. […]
The kinetics of indolicidin antimicrobial activity was evaluated by incubating 2×10^6 E. coli with […] of indolicidin for 1 to 40 min. […]

For experiment [1], the system named is P. aeruginosa strain (ATCC 9027). The experiment is described as follows: Protocol 1 kill curve / MIC, 1 hour at 37° C. It is filed as cell-based, Pseudomonas aeruginosa. The note with it: 6.25 μg/ml, 10 mM sodium phosphate buffer. As for the experimental part:
(§1) This protocol is used to develop dose-response (kill) curves to calculate the minimal inhibitory concentration of an indolicidin (e.g., L-indolicidin (L-IND)) when formulated in a commercially available phosphate buffered saline (PBS) solution. In addition, for comparative purposes, kill curves are established for the following three commonly available commercial lens-care products containing different preservatives:
(§2) The stock solutions are diluted in a 2-fold fashion by transferring 1 ml of each stock solution to 1 ml of appropriate diluent in sterile glass tubes (100×13 mm). Twelve additional 2-fold dilutions are made by transferring 1 ml aliquots of each dilution to 1 ml diluent. The diluent for all commercial lens-care products is PBS. […]
(§3) Viable counts of the bacteria are performed by 10-fold serial dilutions in sterile PBS and by plating 0.1 ml aliquots on nutrient agar plates. […] The plates are incubated overnight at 37° C. and colonies are counted and recorded. […]
(§4) Survival is expressed as number of surviving bacteria (CFU/ml) for each dilution of the test article and control solutions. The lowest dose of the test article that results in complete kill of the test organism, compared to the non-exposed control, is determined to be the MIC value. […]

The next experiment has as its system S. aureus (ATCC 6538). The experiment is described as follows: Protocol 1 kill curve / MIC, 1 hour at 37° C. Type of experiment: cell-based, Staphylococcus aureus. The note with it: 10 mM sodium phosphate buffer. How it is done:
as §1, §2, §3, §4

Consider `CC[C@H](C)[C@H](N)C(=O)N[C@@H](CC(C)C)C(=O)N1CCC[C@H]1C(=O)N[C@@H](Cc1c[nH]c2ccccc12)C(=O)N[C@@H](CCCCN)C(=O)N[C@@H](Cc1c[nH]c2ccccc12)C(=O)N1CCC[C@H]1C(=O)N[C@@H](Cc1c[nH]c2ccccc12)C(=O)N[C@@H](Cc1c[nH]c2ccccc12)C(=O)N1CCC[C@H]1C(=O)N[C@@H](Cc1c[nH]c2ccccc12)C(=O)N[C@@H](CCCNC(=N)N)C(=O)N[C@@H](CCCNC(=N)N)C(N)=O` [L-indolicidin, H2N-ILPWKWPWWPWRR-CONH2], for which, in the experiment on Escherichia coli ML35 (10 μg/mL indolicidin, 2 hours, 10 mM sodium phosphate buffer pH 7.4, 37° C., 2×10^6 CFU), the Viability reduction result is recorded as “at least four”. In addition, the culture viability result in the experiment on Escherichia coli ML35 (25 μ/mL indolicidin, after 20 min) is listed as “essentially was sterilized”. Also, the survival is 59% in experiment [1]; “no detectable survival” in the experiment with S. aureus (ATCC 6538) (100, 50, 25 and 12.5 μg/ml, 4.1×10^5 CFU/ml). The log kill in the experiment on S. aureus (ATCC 6538) (6.25 μg/ml) is about 3 log.
